Measured values as given in US11903387B2 (priority 2016, dated 2024).

Legend:
[1] = test system: Pseudoperonospora cubensis; assay: Test 2: control effect against cucumber downy mildew; type: in vivo
Phytophthora infestans = assay: whole plant or invertebrate; type: in vivo
[2] = component (b) alone 0.08 ppm, average of three repeats
[3] = component (b) alone 0.4 ppm, average of three repeats
[4] = component (b) alone 2 ppm, average of three repeats
[5] = component (b) alone 10 ppm, average of three repeats

C#CCOc1ccc(CCNC(=O)C(OCC#C)c2ccc(Cl)cc2)cc1OC (centres unmarked) [Mandipropamid]
Test 2 Measured preventive value [1, 2]: 5 | Test 2 Measured preventive value [1, 3]: 89.5 | Test 2 Measured preventive value [1, 4]: 95 | Test 2 Measured ([1]; component (b) alone, 0.08 ppm): 12 | Test 2 Measured preventive value ([1]; component (b) alone, 0.08 ppm): 5 | Test 2 Measured ([1]; component (b) alone, 0.4 ppm): 88.3 | Test 2 Measured preventive value ([1]; component (b) alone, 0.4 ppm): 89.5 | Test 2 Measured ([1]; component (b) alone, 2 ppm): 95 | Test 2 Measured preventive value ([1]; component (b) alone, 2 ppm): 95 | Test 1 Measured preventive value (Phytophthora infestans; [2]): 36.7 | Test 1 Measured preventive value (Phytophthora infestans; [3]): 95.5 | Test 1 Measured preventive value (Phytophthora infestans; [4]): 100.0 | Test 1 Measured (Phytophthora infestans; component (b) alone, 0.08 ppm): 40.0 | Test 1 Measured preventive value (Phytophthora infestans; component (b) alone, 0.08 ppm): 36.7 | Test 1 Measured (Phytophthora infestans; component (b) alone, 0.4 ppm): 94.0 | Test 1 Measured preventive value (Phytophthora infestans; component (b) alone, 0.4 ppm): 95.5 | Test 1 Measured (Phytophthora infestans; component (b) alone, 2 ppm): 100.0 | Test 1 Measured preventive value (Phytophthora infestans; component (b) alone, 2 ppm): 100.0

Fc1ccc(Oc2ccnc3cc(Cl)cc(Cl)c23)cc1 [Quinoxyfen]
pest or weed control at 250 ppm ([1]; Pseudoperonospora cubensis, component (b) alone 250 ppm, read-out: Test 2 Measured): 0% | pest or weed control at 10 ppm ([1]; Pseudoperonospora cubensis, component (b) alone, 10 ppm, read-out: Test 2 Measured): 0% | pest or weed control at 50 ppm ([1]; Pseudoperonospora cubensis, component (b) alone, 50 ppm, read-out: Test 2 Measured): 0% | pest or weed control at 10 ppm (Phytophthora infestans; Phytophthora infestans, in Solanum lycopersicum, read-out: Test 1 preventive value, Measured, applied alone, 10 ppm): 0% | pest or weed control at 50 ppm (Phytophthora infestans; Phytophthora infestans, in Solanum lycopersicum, read-out: Test 1 preventive value, Measured, applied alone, 50 ppm): 0% | pest or weed control at 250 ppm (Phytophthora infestans; Phytophthora infestans, in Solanum lycopersicum, read-out: Test 1 preventive value, Measured, applied alone, 250 ppm): 0%

Cc1ccc(C(C)NC(=O)[C@@H](NC(=O)OC(C)C)C(C)C)cc1 (some centres unmarked) [Iprovalicarb]
Test 2 Measured ([1]; component (b) alone, 0.4 ppm): 0 | Test 2 Measured ([1]; component (b) alone, 2 ppm): 0 | Test 2 Measured ([1]; component (b) alone, 10 ppm): 93.8 | Test 1 Measured (Phytophthora infestans; component (b) alone, 0.4 ppm): 15 | Test 1 Measured (Phytophthora infestans; component (b) alone, 2 ppm): 93.3 | Test 1 Measured (Phytophthora infestans; component (b) alone, 10 ppm): 100

Cc1cccc2sc3nncn3c12 [Tricyclazole]
pest or weed control at 20 ppm ([1]; Pseudoperonospora cubensis, component (b) alone 20 ppm, read-out: Test 2 Measured): 0% | pest or weed control at 100 ppm ([1]; Pseudoperonospora cubensis, component (b) alone 100 ppm, read-out: Test 2 Measured): 0% | pest or weed control at 500 ppm ([1]; Pseudoperonospora cubensis, component (b) alone 500 ppm, read-out: Test 2 Measured): 22.5% | pest or weed control at 20 ppm (Phytophthora infestans; Phytophthora infestans, in Solanum lycopersicum, read-out: Test 1 Measured, component (b) alone 20 ppm): 0% | pest or weed control at 100 ppm (Phytophthora infestans; Phytophthora infestans, in Solanum lycopersicum, read-out: Test 1 Measured, component (b) alone 100 ppm): 0% | pest or weed control at 500 ppm (Phytophthora infestans; Phytophthora infestans, in Solanum lycopersicum, read-out: Test 1 Measured, component (b) alone 500 ppm): 70%

COCC(=O)N(c1c(C)cccc1C)[C@H](C)C(=O)OC [Metalaxyl-M]
Test 2 Measured preventive value [1, 3]: 0 | Test 2 Measured preventive value [1, 4]: 0 | Test 2 Measured preventive value [1, 5]: 0 | Test 2 Measured ([1]; component (b) alone, 0.4 ppm): 0 | Test 2 Measured preventive value ([1]; component (b) alone, 0.4 ppm): 0 | Test 2 Measured ([1]; component (b) alone, 2 ppm): 0 | Test 2 Measured preventive value ([1]; component (b) alone, 2 ppm): 0 | Test 2 Measured ([1]; component (b) alone, 10 ppm): 0 | Test 2 Measured preventive value ([1]; component (b) alone, 10 ppm): 0 | Test 1 Measured preventive value (Phytophthora infestans; [3]): 38.3 | Test 1 Measured preventive value (Phytophthora infestans; [4]): 89.2 | Test 1 Measured preventive value (Phytophthora infestans; [5]): 100.0 | Test 1 Measured (Phytophthora infestans; component (b) alone, 0.4 ppm): 54.4 | Test 1 Measured preventive value (Phytophthora infestans; component (b) alone, 0.4 ppm): 38.3 | Test 1 Measured (Phytophthora infestans; component (b) alone, 2 ppm): 86.0 | Test 1 Measured preventive value (Phytophthora infestans; component (b) alone, 2 ppm): 89.3 | Test 1 Measured (Phytophthora infestans; component (b) alone, 10 ppm): 99.0 | Test 1 Measured preventive value (Phytophthora infestans; component (b) alone, 10 ppm): 98.5

COc1ccc(C(=CC(=O)N2CCOCC2)c2ccc(Cl)cc2)cc1OC [Dimethomorph]
Test 2 Measured preventive value ([1]; component (b) alone, 0.4 ppm): 0 | Test 2 Measured preventive value ([1]; component (b) alone, 2 ppm): 62.5 | Test 2 Measured preventive value ([1]; component (b) alone, 10 ppm): 95.5 | pest or weed control at 0.4 ppm (Phytophthora infestans; Phytophthora infestans, in Solanum lycopersicum, read-out: Test 1 Measured preventive value, component (b) alone, 0.4 ppm): 11.7% | pest or weed control at 2 ppm (Phytophthora infestans; Phytophthora infestans, in Solanum lycopersicum, read-out: Test 1 Measured preventive value, component (b) alone, 2 ppm): 26.7%

Cc1cc(C(F)(F)F)nn1CC(=O)N1CCC(c2nc(C3=NOC(c4c(F)cccc4F)C3)cs2)CC1 (centres unmarked) [Oxathiapiprolin]
Test 2 Measured ([1]; component (b) alone 0.0024 ppm): 40 | Test 2 Measured ([1]; component (b) alone 0.012 ppm): 99 | Test 2 Measured ([1]; component (b) alone 0.06 ppm): 100 | Test 1 Measured (Phytophthora infestans; component (b) alone 0.0024 ppm): 60.2 | Test 1 Measured (Phytophthora infestans; component (b) alone 0.012 ppm): 95 | Test 1 Measured (Phytophthora infestans; component (b) alone 0.06 ppm): 100
